Test results as given in ChEMBL document CHEMBL5465560, “Selectivity Literature for EUbOPEN Chemogenomic Library” (2024).

Legend:
[1] = target: T1, SNF-related serine/threonine-protein kinase (Homo sapiens) (UniProt Q9NRH2); experiment: Selectivity interaction (KinomeScan (DiscoverX)) EUB0000655a SNRK; conditions: at 10 µM
T1 sequence (whole entry): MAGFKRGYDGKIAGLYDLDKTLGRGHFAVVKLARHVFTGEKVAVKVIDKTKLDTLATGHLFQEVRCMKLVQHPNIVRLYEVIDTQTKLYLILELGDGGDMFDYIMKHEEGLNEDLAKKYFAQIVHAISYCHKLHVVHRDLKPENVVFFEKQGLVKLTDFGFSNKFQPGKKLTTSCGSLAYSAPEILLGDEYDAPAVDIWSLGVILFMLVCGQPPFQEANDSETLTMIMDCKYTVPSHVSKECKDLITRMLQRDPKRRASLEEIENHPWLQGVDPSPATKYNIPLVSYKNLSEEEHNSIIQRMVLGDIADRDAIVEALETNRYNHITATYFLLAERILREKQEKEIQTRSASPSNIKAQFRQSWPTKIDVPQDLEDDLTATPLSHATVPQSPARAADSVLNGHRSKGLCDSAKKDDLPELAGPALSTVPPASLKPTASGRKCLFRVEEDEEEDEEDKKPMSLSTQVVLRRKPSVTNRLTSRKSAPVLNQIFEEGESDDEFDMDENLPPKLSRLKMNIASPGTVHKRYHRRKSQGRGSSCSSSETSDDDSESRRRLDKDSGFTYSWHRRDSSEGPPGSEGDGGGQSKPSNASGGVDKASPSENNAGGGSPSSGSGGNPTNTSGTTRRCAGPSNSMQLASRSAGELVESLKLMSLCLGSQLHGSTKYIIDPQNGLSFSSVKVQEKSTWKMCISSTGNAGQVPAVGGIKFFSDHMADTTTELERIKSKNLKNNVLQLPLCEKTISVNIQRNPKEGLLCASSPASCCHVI

[2] = target: AP2-associated protein kinase 1 (Homo sapiens, UniProt Q2M2I8); experiment: Selectivity interaction (KinomeScan (DiscoverX)) EUB0000618a AAK1; conditions: at 10 µM
[3] = target: Myosin light chain kinase 2, skeletal/cardiac muscle (Homo sapiens) (UniProt Q9H1R3); experiment: Selectivity interaction (KinomeScan (DiscoverX)) EUB0000595a MYLK2; conditions: at 10 µM
Myosin light chain kinase 2, skeletal/cardiac muscle (Homo sapiens), sequence (Q9H1R3 whole entry): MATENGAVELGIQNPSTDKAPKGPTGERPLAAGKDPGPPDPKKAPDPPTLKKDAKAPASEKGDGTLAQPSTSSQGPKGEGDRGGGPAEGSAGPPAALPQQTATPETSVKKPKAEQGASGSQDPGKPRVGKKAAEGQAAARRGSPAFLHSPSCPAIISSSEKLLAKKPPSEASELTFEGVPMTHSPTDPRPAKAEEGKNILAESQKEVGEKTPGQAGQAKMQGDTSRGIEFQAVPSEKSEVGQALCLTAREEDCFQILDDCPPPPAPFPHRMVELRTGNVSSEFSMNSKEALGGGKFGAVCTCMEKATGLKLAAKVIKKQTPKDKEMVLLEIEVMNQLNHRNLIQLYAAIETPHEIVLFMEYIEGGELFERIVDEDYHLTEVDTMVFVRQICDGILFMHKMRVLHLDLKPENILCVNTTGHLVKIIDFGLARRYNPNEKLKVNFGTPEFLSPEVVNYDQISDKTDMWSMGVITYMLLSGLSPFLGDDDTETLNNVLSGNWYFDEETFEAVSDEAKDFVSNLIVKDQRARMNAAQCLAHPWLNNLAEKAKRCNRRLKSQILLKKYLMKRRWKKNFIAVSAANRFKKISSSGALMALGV

[4] = target: Dual specificity protein kinase CLK3 (Homo sapiens, UniProt P49761); conditions: at 10 µM
Dual specificity protein kinase CLK3, sequence (P49761 whole entry, looked up): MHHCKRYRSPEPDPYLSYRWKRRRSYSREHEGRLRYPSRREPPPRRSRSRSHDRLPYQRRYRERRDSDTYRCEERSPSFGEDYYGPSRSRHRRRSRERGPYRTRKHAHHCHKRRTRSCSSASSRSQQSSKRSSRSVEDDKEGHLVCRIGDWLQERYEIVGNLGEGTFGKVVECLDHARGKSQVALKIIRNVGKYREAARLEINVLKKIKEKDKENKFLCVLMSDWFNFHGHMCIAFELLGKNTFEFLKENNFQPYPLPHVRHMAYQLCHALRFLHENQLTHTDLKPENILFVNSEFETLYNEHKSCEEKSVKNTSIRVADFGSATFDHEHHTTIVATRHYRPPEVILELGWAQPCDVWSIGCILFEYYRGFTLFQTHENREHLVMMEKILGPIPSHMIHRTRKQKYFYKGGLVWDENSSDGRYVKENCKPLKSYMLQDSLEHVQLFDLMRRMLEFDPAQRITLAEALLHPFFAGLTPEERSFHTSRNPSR

[5] = target: Proto-oncogene tyrosine-protein kinase receptor Ret (Homo sapiens, UniProt P07949); conditions: at 10 µM
Proto-oncogene tyrosine-protein kinase receptor Ret, sequence (P07949 whole entry): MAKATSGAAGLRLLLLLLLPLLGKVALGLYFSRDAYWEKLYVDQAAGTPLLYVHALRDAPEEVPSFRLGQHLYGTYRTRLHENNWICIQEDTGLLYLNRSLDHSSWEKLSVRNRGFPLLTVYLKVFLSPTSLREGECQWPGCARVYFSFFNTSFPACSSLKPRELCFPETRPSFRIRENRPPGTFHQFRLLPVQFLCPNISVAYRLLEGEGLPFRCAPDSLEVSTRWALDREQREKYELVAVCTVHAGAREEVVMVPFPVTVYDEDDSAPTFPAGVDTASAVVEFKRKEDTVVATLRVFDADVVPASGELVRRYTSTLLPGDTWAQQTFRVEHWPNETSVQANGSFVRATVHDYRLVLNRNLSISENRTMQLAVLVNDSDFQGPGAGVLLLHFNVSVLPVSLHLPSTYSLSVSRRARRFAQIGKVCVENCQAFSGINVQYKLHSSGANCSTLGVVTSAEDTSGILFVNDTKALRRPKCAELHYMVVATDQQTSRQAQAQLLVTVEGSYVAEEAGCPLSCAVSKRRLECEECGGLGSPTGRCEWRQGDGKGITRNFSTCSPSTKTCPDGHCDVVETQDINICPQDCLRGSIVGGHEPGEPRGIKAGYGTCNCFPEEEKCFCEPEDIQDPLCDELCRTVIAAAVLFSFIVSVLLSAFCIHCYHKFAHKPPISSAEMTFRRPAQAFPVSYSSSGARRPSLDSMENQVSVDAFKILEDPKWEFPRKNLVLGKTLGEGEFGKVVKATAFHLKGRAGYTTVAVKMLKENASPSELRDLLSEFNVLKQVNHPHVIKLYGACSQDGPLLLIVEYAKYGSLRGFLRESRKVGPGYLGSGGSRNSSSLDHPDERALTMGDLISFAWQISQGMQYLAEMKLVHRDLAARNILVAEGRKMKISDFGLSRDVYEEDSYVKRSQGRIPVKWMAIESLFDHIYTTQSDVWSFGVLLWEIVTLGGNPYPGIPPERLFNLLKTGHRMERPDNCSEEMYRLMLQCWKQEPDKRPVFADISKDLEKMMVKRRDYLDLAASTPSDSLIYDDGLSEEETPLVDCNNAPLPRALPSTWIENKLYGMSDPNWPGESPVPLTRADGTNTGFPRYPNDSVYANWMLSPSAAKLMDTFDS

[6] = target: Serine/threonine-protein kinase B-raf (Homo sapiens) (UniProt P15056); experiment: Selectivity interaction (Kinase panel (Invitrogen)) EUB0000639a BRAF; conditions: at 200 nM
Serine/threonine-protein kinase B-raf (Homo sapiens), sequence (P15056 whole entry): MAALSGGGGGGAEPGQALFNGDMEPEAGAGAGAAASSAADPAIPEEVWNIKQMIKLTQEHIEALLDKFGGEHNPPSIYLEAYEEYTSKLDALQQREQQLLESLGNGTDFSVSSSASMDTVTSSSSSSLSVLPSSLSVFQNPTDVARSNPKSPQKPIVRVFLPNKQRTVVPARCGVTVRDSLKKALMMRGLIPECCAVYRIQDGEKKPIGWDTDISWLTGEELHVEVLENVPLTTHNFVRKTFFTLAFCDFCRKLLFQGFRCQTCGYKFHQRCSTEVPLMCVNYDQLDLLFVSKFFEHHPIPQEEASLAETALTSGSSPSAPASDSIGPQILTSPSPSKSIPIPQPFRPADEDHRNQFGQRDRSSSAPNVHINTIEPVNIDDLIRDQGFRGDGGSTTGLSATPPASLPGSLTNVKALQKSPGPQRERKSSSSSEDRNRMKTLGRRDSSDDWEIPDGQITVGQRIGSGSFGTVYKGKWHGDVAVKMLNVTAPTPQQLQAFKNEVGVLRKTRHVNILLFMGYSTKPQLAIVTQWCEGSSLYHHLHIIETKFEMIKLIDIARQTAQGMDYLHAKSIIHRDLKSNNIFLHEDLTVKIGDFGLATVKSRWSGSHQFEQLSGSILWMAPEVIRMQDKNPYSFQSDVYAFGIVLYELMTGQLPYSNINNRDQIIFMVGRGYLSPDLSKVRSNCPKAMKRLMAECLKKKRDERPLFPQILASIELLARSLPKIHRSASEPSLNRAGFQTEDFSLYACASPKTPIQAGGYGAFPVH

[7] = target: Ribosomal protein S6 kinase alpha-3 (Homo sapiens, UniProt P51812); experiment: Selectivity interaction (ActivX KiNativ screen (kinase selectivity in THP-1 cell lysates)) EUB0000639a RPS6KA3; format: subcellular; conditions: lysate, at 5 µM
Ribosomal protein S6 kinase alpha-3, sequence (P51812 whole entry): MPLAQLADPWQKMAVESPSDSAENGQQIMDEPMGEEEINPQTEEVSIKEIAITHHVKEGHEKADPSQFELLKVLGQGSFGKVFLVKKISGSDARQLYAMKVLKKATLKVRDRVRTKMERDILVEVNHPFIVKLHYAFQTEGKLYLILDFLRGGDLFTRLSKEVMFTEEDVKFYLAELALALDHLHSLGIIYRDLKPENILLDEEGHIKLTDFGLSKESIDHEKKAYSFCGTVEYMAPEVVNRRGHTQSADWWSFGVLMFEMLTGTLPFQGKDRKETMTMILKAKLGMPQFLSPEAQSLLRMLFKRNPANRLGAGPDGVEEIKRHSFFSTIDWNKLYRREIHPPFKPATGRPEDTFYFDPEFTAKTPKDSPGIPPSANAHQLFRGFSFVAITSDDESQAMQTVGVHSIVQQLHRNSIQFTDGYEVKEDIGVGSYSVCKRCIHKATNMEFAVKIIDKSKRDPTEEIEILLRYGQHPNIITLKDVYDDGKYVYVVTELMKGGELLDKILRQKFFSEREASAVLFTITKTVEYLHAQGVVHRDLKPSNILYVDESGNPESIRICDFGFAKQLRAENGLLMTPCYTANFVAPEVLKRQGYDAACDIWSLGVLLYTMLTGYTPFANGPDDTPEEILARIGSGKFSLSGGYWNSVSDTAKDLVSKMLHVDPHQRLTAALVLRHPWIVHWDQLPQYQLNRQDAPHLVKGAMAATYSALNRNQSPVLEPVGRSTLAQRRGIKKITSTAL

[8] = target: Protein kinase C eta type (Homo sapiens) (UniProt P24723); experiment: Selectivity interaction (KinomeScan (DiscoverX)) EUB0000666a PRKCH; conditions: at 10 µM
Protein kinase C eta type (Homo sapiens), sequence (P24723 whole entry): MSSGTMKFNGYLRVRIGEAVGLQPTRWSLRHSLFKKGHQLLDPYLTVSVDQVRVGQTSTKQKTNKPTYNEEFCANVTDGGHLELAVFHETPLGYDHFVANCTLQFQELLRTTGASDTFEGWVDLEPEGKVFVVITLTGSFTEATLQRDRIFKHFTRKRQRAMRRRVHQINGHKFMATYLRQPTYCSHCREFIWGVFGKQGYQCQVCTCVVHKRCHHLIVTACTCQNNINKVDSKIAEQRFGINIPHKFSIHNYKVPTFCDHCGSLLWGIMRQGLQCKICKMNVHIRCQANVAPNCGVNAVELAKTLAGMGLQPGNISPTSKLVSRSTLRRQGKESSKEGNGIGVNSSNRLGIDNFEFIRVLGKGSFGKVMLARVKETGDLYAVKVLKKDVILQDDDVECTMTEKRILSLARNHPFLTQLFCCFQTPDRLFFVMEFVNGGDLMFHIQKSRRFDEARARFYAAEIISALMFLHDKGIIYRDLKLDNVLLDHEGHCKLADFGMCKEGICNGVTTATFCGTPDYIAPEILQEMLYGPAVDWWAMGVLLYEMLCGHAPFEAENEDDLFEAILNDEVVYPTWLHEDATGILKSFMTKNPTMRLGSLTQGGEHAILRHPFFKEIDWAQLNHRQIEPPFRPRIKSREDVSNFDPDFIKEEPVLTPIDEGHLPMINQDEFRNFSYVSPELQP

[9] = target: T2, Serine/threonine-protein kinase Nek11 (Homo sapiens) (UniProt Q8NG66); experiment: Selectivity interaction (KinomeScan (DiscoverX)) EUB0000666a NEK11; conditions: at 10 µM
T2 sequence (whole entry): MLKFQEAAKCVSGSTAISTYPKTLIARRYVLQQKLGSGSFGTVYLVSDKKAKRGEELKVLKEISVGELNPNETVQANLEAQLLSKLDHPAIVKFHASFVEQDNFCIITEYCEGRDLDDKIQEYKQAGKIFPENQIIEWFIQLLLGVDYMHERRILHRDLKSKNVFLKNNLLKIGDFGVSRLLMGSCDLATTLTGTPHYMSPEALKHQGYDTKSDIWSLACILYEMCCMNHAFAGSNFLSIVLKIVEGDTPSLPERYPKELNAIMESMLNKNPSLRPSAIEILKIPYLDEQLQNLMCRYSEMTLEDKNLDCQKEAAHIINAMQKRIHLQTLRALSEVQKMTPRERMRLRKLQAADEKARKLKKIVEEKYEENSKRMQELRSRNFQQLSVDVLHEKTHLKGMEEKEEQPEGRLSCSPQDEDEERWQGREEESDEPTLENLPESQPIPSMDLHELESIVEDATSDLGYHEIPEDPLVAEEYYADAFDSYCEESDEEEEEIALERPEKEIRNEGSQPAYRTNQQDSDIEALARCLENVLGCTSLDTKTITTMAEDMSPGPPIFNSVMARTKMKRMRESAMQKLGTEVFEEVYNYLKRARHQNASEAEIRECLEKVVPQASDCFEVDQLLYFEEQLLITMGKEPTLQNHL

[10] = target: T3, Dual specificity mitogen-activated protein kinase kinase 4 (Homo sapiens) (UniProt P45985); experiment: Selectivity interaction (Kinase screening (Upstate/Millipore)) EUB0000604a MAP2K4
T3 sequence (whole entry): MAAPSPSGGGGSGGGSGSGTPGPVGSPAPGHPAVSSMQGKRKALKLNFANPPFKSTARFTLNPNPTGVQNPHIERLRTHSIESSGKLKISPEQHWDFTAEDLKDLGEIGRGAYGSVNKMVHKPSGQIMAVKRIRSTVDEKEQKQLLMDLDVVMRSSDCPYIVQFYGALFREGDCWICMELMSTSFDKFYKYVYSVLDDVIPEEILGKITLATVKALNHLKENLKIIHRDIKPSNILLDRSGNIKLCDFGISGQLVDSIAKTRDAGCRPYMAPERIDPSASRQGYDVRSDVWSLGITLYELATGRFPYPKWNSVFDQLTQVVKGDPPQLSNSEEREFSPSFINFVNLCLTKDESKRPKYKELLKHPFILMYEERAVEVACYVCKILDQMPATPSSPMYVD

[11] = target: Serine/threonine-protein kinase 32C (Homo sapiens) (UniProt Q86UX6); experiment: Selectivity interaction (KinomeScan (DiscoverX)) EUB0000695a STK32C; conditions: at 100 nM
Serine/threonine-protein kinase 32C (Homo sapiens), sequence (Q86UX6 whole entry): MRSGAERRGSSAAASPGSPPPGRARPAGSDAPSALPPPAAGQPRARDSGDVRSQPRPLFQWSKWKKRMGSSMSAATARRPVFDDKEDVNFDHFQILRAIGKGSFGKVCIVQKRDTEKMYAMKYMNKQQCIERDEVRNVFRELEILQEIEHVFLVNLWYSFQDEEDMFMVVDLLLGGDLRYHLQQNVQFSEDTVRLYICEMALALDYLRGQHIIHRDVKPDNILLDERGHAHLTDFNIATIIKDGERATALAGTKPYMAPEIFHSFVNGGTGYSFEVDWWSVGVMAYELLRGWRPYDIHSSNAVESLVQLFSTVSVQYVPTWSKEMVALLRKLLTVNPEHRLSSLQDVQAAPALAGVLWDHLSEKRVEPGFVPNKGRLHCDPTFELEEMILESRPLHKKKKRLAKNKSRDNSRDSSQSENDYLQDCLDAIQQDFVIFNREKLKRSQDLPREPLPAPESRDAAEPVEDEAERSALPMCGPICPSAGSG

For `CN(C)CCOc1ccc(-c2nc(-c3ccncc3)c(-c3ccc4c(c3)CC/C4=N\O)[nH]2)cc1`, the % of control [1] was 89%.
`O[C@H]1CC[C@H](Nc2ncc3nc(Nc4c(F)cc(F)cc4F)n([C@H]4CCOC4)c3n2)CC1` was tested, and the % of control [2] was 100%.
`COCC(=O)NC/C=C/c1ccc2ncnc(Nc3ccc(Oc4ccc(C)nc4)c(C)c3)c2c1` [CP-724714] gave a % of control [3] of 100%.
Work on `Cc1cc([C@@H](C)Nc2ccccc2C(=O)O)c2nc(N3CCOCC3)cc(=O)n2c1` [AZD-6482] yielded a % of control [4] of 100% and a % of control [5] of 100%.
With `CC[C@@H]1[C@H](F)C(=O)N[C@@H]1COc1nccc2cc(C(N)=O)c(OC)cc12` [ZIMLOVISERTIB] the % of inhibition [6] was 28.7% and the % of inhibition [7] was 1.6%.
For `O=C(NOC[C@H](O)CO)c1ccc(F)c(F)c1Nc1ccc(I)cc1F`, the % of control [8] was 100% and the % of control [9] was 91%.
Work on `Cc1cnc(Nc2ccc(F)cc2Cl)nc1-c1c[nH]c(C(=O)N[C@H](CO)c2cccc(Cl)c2)c1` yielded a % of inhibition [10] of 69%.
Work on `Cc1cc(F)c(C(=O)Nc2cccc(-c3nncn3C(C)C)n2)cc1-n1cnc(C2CC2)c1` yielded a % of control [11] of 100%.
